In US6365606B1, “6,5-fused aromatic ring systems having enhanced phosphodiesterase IV inhibitory activity” (Euro-Celtique, S.A., priority 1996, dated 2002) one finds IC50 data, which are given here for six molecules.

What all share (format): biochemical
For assay [1], the system named is Type IV PDE isolated from bovine tracheal smooth muscle. Kind of assay: Type IV PDE activity, hydrolysis of [3H]-cyclic AMP. The following applies: bovine tracheal smooth muscle enzyme; 0.2 μM cyclic AMP. The method, then: The Type IV PDE is isolated from bovine tracheal smooth muscle using a procedure similar to that previously described by Silver, P. J., et al.: Eur. J. Pharmacol. 150:85, 1988.(1). Eiiefly, smooth muscle from bovine trachea is minced and homogenized using a polytron in 10 volumes of an extraction buffer containing 10 mM Tris-acetate (pH 7.5), 2 mM magnesium chloride, 1 mM dithiothreitol and 2,000 units/ml of aprotinin. This and all subsequent procedures are performed at 0-4EC. The homogenate is sonicated and then centrifuged at 48,000×g for 30 minutes. The resulting supernatant is applied to a DEAE Trisacryl M column previously equilibrated with sodium acetate and dithiothreitol. After applications of the sample, the column is washed with sodium acetate/dithiothreitol, after which the different forms of PDE are eluted from the column using a linear Tris-HCl/NaCl gradient. Fractions containing Type IV PDE are collected, dialyzed and concentrated to 14% of the original volume. The concentrated fractions are diluted to 50% with ethylene glycol and stored at −20EC.
Enzyme activity is assessed by measuring the hydrolysis of [^3H]-cyclic AMP, as described by Thompson, W. J., et al.: Adv. Cyclic Nucleotide Res. 10:69, 1979. The cyclic AMP concentration used in this assay is 0.2 μM, which approximates to the Km value. Protein concentration is adjusted to ensure that no more than 15% of the available substrate is hydrolyzed during the incubation period.
All test compounds are dissolved in dimethyl sulfoxide (final concentration of 2.5%). This concentration of dimethyl sulfoxide inhibits enzyme activity by approximately 10%.
The compounds are tested over concentration range: 0.1, 1, 10, 100 uM (n=1), and IC50 determinations are made using 5 appropriate concentrations (n=2).

The target of assay [2] is T1, Type III PDE isolated from human platelets (Homo sapiens, UniProt Q14432).
T1 construct: Fractions containing PDE III activity are pooled and dialyzed; from tissue; host or cells: human platelets (100,000 x g supernatant, DEAE-Trisacryl M fraction)
In words: Type III PDE activity, hydrolysis of [3H]-cyclic AMP. The following applies: human platelet enzyme; 0.2 μM cyclic AMP. How it is done: After application of the sample, the column is washed with several bed volumes of buffer B, after which the different forms of PDE are eluted from the column using two successive linear NaCl gradients (0.05-0.15 M, 300 ml total; 0.15-0.40 M, 200 ml total). Five milliliter fractions are collected and assayed for cyclic AMP and cyclic GMP PDE activity.

Assay [3] deals with T2, Type V PDE isolated from platelets (Homo sapiens, UniProt O76074).
T2 construct: Fractions that contain PDE V are pooled and dialyzed overnight; from tissue; host or cells: platelets (supernatant, DEAE-Trisacryl M fraction)
In words: Type V PDE activity, hydrolysis of [3H]-cyclic GMP. The following applies: platelet enzyme; 0.2 uM cyclic GMP. The method, then:
Briefly, 1-2 units of platelets are suspended in an equal volume of buffer A (20 mM Tris-HCl, pH 7.5, containing 2 mM magnesium acetate, 1 mM dithiothreitol, and 5 mM Na2EDTA) using a polytron. The proteinase inhibitor phenylmethylsulfonyl fluoride (PMSF) are also included in this buffer at a final concentration of 200 uM. […] The homogenate is then centrifuged at 100,000 rpm for 60 minutes. The supernatant is then removed and filtered through four layers of gauze and applied to a DEAE-Trisacryl M column. The column is washed with several bed volumes of buffer B (20 mM Tris-HCl, pH 7.5, containing 2 mM magnesium acetate, 1 mM diothiothreitol, and […] PMSF) and eluted by two successive linear NaCl gradients (0.05-0.15 M, 300 ml total; 0.15-0.40 M, 200 ml total). Five ml fractions are collected and assayed for cyclic AMP and cyclic GMP PDE activity. Fractions that contain PDE V are pooled and dialyzed overnight against 4 L of buffer C (20 mM Tris-HCl, pH 7.5, containing 2 mM magnesium acetate and proteinase inhibitors). […] PDE V can typically be retained for up to four weeks with little or no loss of activity.
The reference Type V PDE inhibitor zaprinast is evaluated with each assay.

As a reminder, the pIC50 is −log10 of the IC50, conventionally taken in molar units. A low value points to a high IC50.

SMILES strings stand for the structures. pIC50: −log10 of the molar value. Where only a bound is given, the exact number is not on record here.

T1 sequence (Q14432 whole entry): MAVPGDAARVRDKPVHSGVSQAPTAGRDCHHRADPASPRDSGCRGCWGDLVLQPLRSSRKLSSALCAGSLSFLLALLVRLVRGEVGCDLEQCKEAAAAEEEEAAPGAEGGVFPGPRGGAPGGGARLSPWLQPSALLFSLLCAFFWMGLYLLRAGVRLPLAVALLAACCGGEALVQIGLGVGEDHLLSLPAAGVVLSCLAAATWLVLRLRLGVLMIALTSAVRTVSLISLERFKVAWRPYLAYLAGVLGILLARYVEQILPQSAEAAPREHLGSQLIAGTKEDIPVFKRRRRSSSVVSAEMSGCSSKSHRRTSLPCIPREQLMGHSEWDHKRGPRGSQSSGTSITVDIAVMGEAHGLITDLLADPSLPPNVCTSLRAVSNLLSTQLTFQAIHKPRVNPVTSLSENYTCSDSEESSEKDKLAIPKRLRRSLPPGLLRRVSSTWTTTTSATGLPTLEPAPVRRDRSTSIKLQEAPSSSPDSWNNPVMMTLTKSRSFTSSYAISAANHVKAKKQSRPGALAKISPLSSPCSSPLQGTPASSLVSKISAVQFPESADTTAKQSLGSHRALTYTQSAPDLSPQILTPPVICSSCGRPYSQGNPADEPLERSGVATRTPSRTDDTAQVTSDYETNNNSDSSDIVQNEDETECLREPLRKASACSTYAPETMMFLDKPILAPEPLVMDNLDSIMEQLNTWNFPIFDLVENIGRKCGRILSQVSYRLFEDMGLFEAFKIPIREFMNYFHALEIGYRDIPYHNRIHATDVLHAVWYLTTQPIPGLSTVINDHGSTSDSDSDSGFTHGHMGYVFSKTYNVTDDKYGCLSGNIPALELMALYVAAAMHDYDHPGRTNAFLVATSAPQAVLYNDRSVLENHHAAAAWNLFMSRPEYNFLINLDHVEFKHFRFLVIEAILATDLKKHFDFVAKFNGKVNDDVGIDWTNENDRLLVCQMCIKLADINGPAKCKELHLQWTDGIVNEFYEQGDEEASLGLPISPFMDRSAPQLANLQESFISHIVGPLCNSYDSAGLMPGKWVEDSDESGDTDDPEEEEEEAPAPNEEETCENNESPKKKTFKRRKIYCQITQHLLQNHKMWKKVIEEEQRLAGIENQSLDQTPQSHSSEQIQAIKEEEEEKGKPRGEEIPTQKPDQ

`CC(C)(C)c1cc(Cc2nc3cc(Cl)cc(C#Cc4ccccn4)c3o2)cc(C(C)(C)C)c1O` [Example 1, 5-chloro-2-(3,5-di-t-butyl-4-hydroxy-benzyl)-7-(2-(2-pyridyl)-ethynyl)-benzoxazole] had a pIC50 in assay [1] of 7.89.
Same read-out and setting: next, `CC(C)(C)c1cc(Cc2nc3cccc(C#Cc4ccccn4)c3o2)cc(C(C)(C)C)c1O` [Example 2]: 6.15.
Same read-out and setting: then `CC(C)(C)c1cc(Cc2nc3cc(Cl)cc(C#Cc4nccs4)c3o2)cc(C(C)(C)C)c1O` [Example 3, 5-chloro-2-(3,5-di-t-butyl-4-hydroxy-benzyl)-7-(2-(2-thiazolyl)-ethynyl)-benzoxazole], with 7.85.
In the case of `CC(C)(C)c1cc(Cc2nc3cc(Cl)cc(C#CCO)c3o2)cc(C(C)(C)C)c1O` [Example 4, 3-(5-chloro-2-(4-hydroxy-3,5-bis((1,1-dimethyl)ethyl)benzyl)benzoxazol-7-yl)prop-2-yn-1-ol], the pIC50 in assay [1] is 6.38; in assay [2], below 3.52; in assay [3] it was 4.71.
As to `COc1ccc(C2CNC(=O)C2)cc1OC1CCCC1` (centres unmarked) [Rolipram, reference compound], the pIC50 in assay [1] is 5.43.
The same measure, in the same setting: then `Cn1c(=O)c2[nH]cnc2n(C)c1=O` [Theophylline, reference compound], with 3.49.
